Experimental data reported in patent US9265777B2, “Antiparasitic agent for fish and method of controlling proliferation of fish parasites” (NIPPON SUISAN KAISHA, LTD., priority 2009, dated 2016).

Experiments:
Cryptocaryon irritans [1] = experiment: Examples 3 and 4: oral administration of single inhibitors and a combination against Cryptocaryon irritans on Pagrus major; format: in vivo; conditions: 60 parasites per plot, P=<0.01
Source text: During the rearing period, 1.4 liters/min. of seawater was supplied. […] After exposure, seven fish each were moved into six 100-liter aquariums. During the rearing period, 1.4 liters/min. of seawater was supplied.

Cryptocaryon irritans [2] = experiment: Example 1: oral administration against parasitism of Cryptocaryon irritans on Pagrus major (1); conditions: 50 mg trimethoprim/kg body weight/day orally for three days; three days after the exposure
[3] = 60 mg/kg fish body weight/day for three days
[4] = 300 mg/kg fish body weight/day for three days

## CN(Cc1cnc2nc(N)nc(N)c2n1)c1ccc(C(=O)N[C@@H](CCC(=O)O)C(=O)O)cc1 [MTX, methotrexate]
Cryptocaryon irritans [1]; [3]
  growth rate of parasites (body length as percentage of control plot), difference to control plot: statistically significant difference

## N=C(N)c1ccc(OCCCCCOc2ccc(C(=N)N)cc2)cc1.O=S(=O)(O)CCO.O=S(=O)(O)CCO [PMD, isethionic acid pentamidine salt]
Cryptocaryon irritans [1]; [3]
  growth rate of parasites (body length as percentage of control plot), difference to control plot: statistically significant difference

## COc1cc(NS(=O)(=O)c2ccc(N)cc2)nc(OC)n1 [SDMX, sulfadimethoxine]
Cryptocaryon irritans [1]; [4]
  growth rate of parasites (body length as percentage of control plot), difference to control plot: statistically significant difference

## Cc1cc(NS(=O)(=O)c2ccc(N)cc2)nc(C)n1 [SID, sulfisomidine]
Cryptocaryon irritans [1]; [4]
  growth rate of parasites (body length as percentage of control plot), difference to control plot: statistically significant difference

## Cc1ccnc(NS(=O)(=O)c2ccc(N)cc2)n1 [SMDN, sulfamerazine]
Cryptocaryon irritans [1]; [4]
  growth rate of parasites (body length as percentage of control plot), difference to control plot: statistically significant difference

## COc1cc(NS(=O)(=O)c2ccc(N)cc2)ncn1 [SMMX, sulfamonomethoxine]
Cryptocaryon irritans [1]; [4]
  growth rate of parasites (body length as percentage of control plot), difference to control plot: statistically significant difference

## Cc1nnc(NS(=O)(=O)c2ccc(N)cc2)s1 [SMZ, sulfamethizole]
Cryptocaryon irritans [1]; [4]
  growth rate of parasites (body length as percentage of control plot), difference to control plot: statistically significant difference

## COc1cc(Cc2cnc(N)nc2N)cc(OC)c1OC [TMP, trimethoprim]
Cryptocaryon irritans [1]; [3]
  growth rate of parasites (body length as percentage of control plot), difference to control plot: statistically significant difference
Cryptocaryon irritans [2]
  number of parasites (left gills, FIG. 1) relative to control plot: tend to be large

## sulfisozole [SIZ]
Cryptocaryon irritans [1]; [4]
  growth rate of parasites (body length as percentage of control plot), difference to control plot: statistically significant difference
